# Data reported in patent publication US7544694B2, “Substituted diaza-spiro-[5.5]-undecane derivatives and their use as neurokinin antagonists” (Janssen Pharmaceutica N.V., priority 2004, dated 2009).
# Tests used:
# Assay type in all cases: cell-based
# [1] = molecular target: T1, NK3 (Homo sapiens, UniProt P29371); test: Signal transduction (ST), intracellular Ca++ (FLIPR), NK3; settings: antagonist, read-out: NK3 pIC50 (converted)
# T1 sequence (P29371 1-465): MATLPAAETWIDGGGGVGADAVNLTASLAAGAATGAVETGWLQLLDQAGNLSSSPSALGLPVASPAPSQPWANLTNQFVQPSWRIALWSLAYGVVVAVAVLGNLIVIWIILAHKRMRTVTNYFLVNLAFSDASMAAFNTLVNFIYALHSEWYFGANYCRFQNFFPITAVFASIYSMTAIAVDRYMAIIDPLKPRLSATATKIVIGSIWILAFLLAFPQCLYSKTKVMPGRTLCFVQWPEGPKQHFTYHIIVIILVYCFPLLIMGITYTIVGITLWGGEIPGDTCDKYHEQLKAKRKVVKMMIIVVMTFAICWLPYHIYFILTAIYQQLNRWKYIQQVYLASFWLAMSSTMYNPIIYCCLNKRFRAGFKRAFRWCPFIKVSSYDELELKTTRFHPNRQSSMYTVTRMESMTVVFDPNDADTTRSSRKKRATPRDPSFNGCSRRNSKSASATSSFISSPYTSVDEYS
# [2] = molecular target: T2, NK2 (Homo sapiens, UniProt P21452); test: Signal transduction (ST), intracellular Ca++ (FLIPR), NK2; settings: antagonist, read-out: NK2 pIC50 (converted)
# T2 sequence (P21452 1-398): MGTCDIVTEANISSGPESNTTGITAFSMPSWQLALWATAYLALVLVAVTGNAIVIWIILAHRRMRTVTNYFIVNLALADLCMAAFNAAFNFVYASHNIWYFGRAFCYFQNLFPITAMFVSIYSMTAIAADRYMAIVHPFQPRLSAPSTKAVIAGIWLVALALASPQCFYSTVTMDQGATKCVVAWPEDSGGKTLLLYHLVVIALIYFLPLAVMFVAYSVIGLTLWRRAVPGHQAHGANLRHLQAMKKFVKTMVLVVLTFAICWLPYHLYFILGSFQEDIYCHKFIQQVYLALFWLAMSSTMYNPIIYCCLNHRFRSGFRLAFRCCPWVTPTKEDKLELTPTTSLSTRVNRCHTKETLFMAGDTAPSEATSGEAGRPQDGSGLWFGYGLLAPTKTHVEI
# [3] = molecular target: NK1 (Homo sapiens, UniProt P25103); test: Signal transduction (ST), intracellular Ca++ (FLIPR), functional NK1 antagonistic activity; settings: antagonist, read-out: NK1 pIC50 (converted)
# Outline: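 Confluent cells were loaded with 2 μM Fluo3 for 1 h at 37° C, then washed into Krebs buffer pH 7.4 with 1.25 mM CaCl2 and 2.5 mM probenecid. Antagonists were preincubated 20 min at RT before agonist addition. Peak Ca++ transients were read by FLIPR, with EC50 or IC50 from sigmoidal non-linear regression.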
# Chain of NK1 (P25103 whole entry): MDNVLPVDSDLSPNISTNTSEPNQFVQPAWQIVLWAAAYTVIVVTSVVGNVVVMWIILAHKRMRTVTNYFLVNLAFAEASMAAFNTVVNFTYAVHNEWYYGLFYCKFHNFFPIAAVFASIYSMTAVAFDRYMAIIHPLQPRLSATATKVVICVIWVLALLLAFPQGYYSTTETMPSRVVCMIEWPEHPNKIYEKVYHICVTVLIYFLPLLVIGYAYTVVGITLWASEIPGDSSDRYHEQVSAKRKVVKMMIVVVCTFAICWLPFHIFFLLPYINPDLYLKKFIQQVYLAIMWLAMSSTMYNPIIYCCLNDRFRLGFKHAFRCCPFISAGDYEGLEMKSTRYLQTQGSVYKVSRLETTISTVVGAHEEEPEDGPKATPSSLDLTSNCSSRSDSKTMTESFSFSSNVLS
IC50 [1],IC50 [2],IC50 [3],Compound
955 nM,2400 nM,38.9 nM,O=C1CCC(C(=O)N2CCC3(CC2)CCN([C@H]2CCN(C(=O)c4cc(C(F)(F)F)cc(C(F)(F)F)c4)[C@H](Cc4ccc(F)c(F)c4)C2)CC3)N1 (stereo partly drawn) [Compound 139]
7410 nM,7760 nM,17 nM,Cc1nnsc1C(=O)N1CCC2(CCN(C[C@H]3CCN(C(=O)c4cc(C(F)(F)F)cc(C(F)(F)F)c4)[C@H](Cc4ccccc4)C3)CC2)CC1 [Compound 183]
6920 nM,1450 nM,23.4 nM,Cc1noc(C)c1CN1CCC2(CCN([C@H]3CCN(C(=O)c4cc(C(F)(F)F)cc(C(F)(F)F)c4)[C@H](Cc4ccccc4)C3)CC2)CC1=O [Compound 200]
> 10000 nM,4470 nM,15.5 nM,O=C(c1ccsc1)N1CCCC2(CCN([C@H]3CCN(C(=O)c4cc(C(F)(F)F)cc(C(F)(F)F)c4)[C@H](Cc4ccccc4)C3)CC2)C1 [Compound 175]
1780 nM,1820 nM,288 nM,"O=C(C1CCOC1)N1CCCC2(CCCN(C3CCN(C(=O)c4cc(C(F)(F)F)cc(C(F)(F)F)c4)C(Cc4ccccc4)C3)C2)C1 (single isomer, unassigned) [Compound 210]"
851 nM,2750 nM,37.2 nM,O=C1CC2(CCN1Cc1ccoc1)CCN([C@H]1CCN(C(=O)c3cc(C(F)(F)F)cc(C(F)(F)F)c3)[C@H](Cc3ccccc3)C1)CC2 [Compound 199]
1950 nM,2040 nM,56.2 nM,CC(C)S(=O)(=O)N1CCC2(CCN([C@H]3CCN(C(=O)c4cc(C(F)(F)F)cc(C(F)(F)F)c4)[C@H](Cc4ccccc4)C3)CC2)CC1 [Compound 167]
> 10000 nM,> 10000 nM,447 nM,O=C(c1cc(C(F)(F)F)cc(C(F)(F)F)c1)N1CC[C@H](N2CCC3(CC2)CCN(S(=O)(=O)c2ccc(C(F)(F)F)cc2)CC3)C[C@H]1Cc1ccccc1 [Compound 117]
> 10000 nM,4680 nM,17.8 nM,CC1(C)OC(=O)CC1C(=O)N1CCC2(CC1)CCN([C@H]1CCN(C(=O)c3cc(C(F)(F)F)cc(C(F)(F)F)c3)[C@H](Cc3ccc(F)c(F)c3)C1)CC2 (stereo partly drawn) [Compound 138]
912 nM,1700 nM,9.55 nM,O=C(C1CCOC1)N1CCC2(CC1)CCN([C@H]1CCN(C(=O)c3cc(C(F)(F)F)cc(C(F)(F)F)c3)[C@H](Cc3ccc(Cl)c(Cl)c3)C1)CC2 (stereo partly drawn) [Compound 132]
1700 nM,3470 nM,27.5 nM,O=C(C1CCOC1)N1CCC2(CC1)CCN([C@H]1CCN(C(=O)c3cc(C(F)(F)F)cc(C(F)(F)F)c3)[C@H](Cc3ccc(F)c(F)c3)C1)CC2 (stereo partly drawn) [Compound 137]

# The remaining lines, values behind:
Compound,IC50 [1],IC50 [2],IC50 [3]
O=C(c1cc(C(F)(F)F)cc(C(F)(F)F)c1)N1CC[C@H](N2CCC3(CC2)CCN(S(=O)(=O)c2cccc(Cl)c2)CC3)C[C@H]1Cc1ccccc1 [Compound 107],3160 nM,4170 nM,115 nM
Cc1ccsc1C(=O)N1CCC2(CC1)CCN([C@H]1CCN(C(=O)c3cc(C(F)(F)F)cc(C(F)(F)F)c3)[C@H](Cc3ccccc3)C1)CC2 [Compound 32],6610 nM,3160 nM,75.9 nM
O=C(NCC(=O)N1CCC2(CC1)CCN([C@H]1CCN(C(=O)c3cc(C(F)(F)F)cc(C(F)(F)F)c3)[C@H](Cc3ccccc3)C1)CC2)c1ccco1 [Compound 73],> 10000 nM,> 10000 nM,33.1 nM
O=C(c1cnc2ccccc2n1)N1CCC2(CC1)CCN([C@H]1CCN(C(=O)c3cc(C(F)(F)F)cc(C(F)(F)F)c3)[C@H](Cc3ccccc3)C1)CC2 [Compound 66],6920 nM,3720 nM,66.1 nM
O=C1CCC(C(=O)N2CCC3(CC2)CCN([C@H]2CCN(C(=O)c4cc(C(F)(F)F)cc(C(F)(F)F)c4)[C@H](Cc4ccccc4)C2)CC3)=NN1 [Compound 58],> 10000 nM,> 10000 nM,64.6 nM
CC1(C(=O)N2CCC3(CC2)CCN([C@H]2CCN(C(=O)c4cc(C(F)(F)F)cc(C(F)(F)F)c4)[C@H](Cc4ccccc4)C2)CC3)CCCCC1 [Compound 37],> 10000 nM,8130 nM,95.5 nM
Cc1nc(S(=O)(=O)N2CCC3(CCN([C@H]4CCN(C(=O)c5cc(C(F)(F)F)cc(C(F)(F)F)c5)[C@H](Cc5ccccc5)C4)CC3)CC2)cn1C [Compound 100],331 nM,1260 nM,12 nM
Cc1ccc(C(=O)N2CCC3(CC2)CCN([C@H]2CCN(C(=O)c4cc(C(F)(F)F)cc(C(F)(F)F)c4)[C@H](Cc4ccccc4)C2)CC3)s1 [Compound 30],> 10000 nM,7940 nM,692 nM
O=C(c1cc(C(F)(F)F)cc(C(F)(F)F)c1)N1CC[C@H](N2CCC3(CC2)CCN(S(=O)(=O)c2cc(Cl)c(Cl)s2)CC3)C[C@H]1Cc1ccccc1 [Compound 96],~10000 nM,1260 nM,468 nM
O=C(c1ccc2c(c1)OCO2)N1CCC2(CC1)CCN([C@H]1CCN(C(=O)c3cc(C(F)(F)F)cc(C(F)(F)F)c3)[C@H](Cc3ccccc3)C1)CC2 [Compound 62],> 10000 nM,> 10000 nM,186 nM
Cc1ccoc1C(=O)N1CCC2(CC1)CCN([C@H]1CCN(C(=O)c3cc(C(F)(F)F)cc(C(F)(F)F)c3)[C@H](Cc3ccccc3)C1)CC2 [Compound 25],> 10000 nM,3980 nM,83.2 nM
Cc1ccc(OCC(=O)N2CCC3(CC2)CCN([C@H]2CCN(C(=O)c4cc(C(F)(F)F)cc(C(F)(F)F)c4)[C@H](Cc4ccccc4)C2)CC3)c(C)c1 [Compound 74],> 10000 nM,> 10000 nM,389 nM
O=C(c1cc(C(F)(F)F)cc(C(F)(F)F)c1)N1CC[C@H](N2CCC3(CC2)CCN(S(=O)(=O)c2ccc(Cl)c(Cl)c2)CC3)C[C@H]1Cc1ccccc1 [Compound 113],> 10000 nM,> 10000 nM,427 nM
O=C(c1cnccn1)N1CCC2(CC1)CCN([C@H]1CCN(C(=O)c3cc(C(F)(F)F)cc(C(F)(F)F)c3)[C@H](Cc3ccccc3)C1)CC2 [Compound 52],> 10000 nM,2880 nM,60.3 nM
O=C(c1cc(C(F)(F)F)cc(C(F)(F)F)c1)N1CC[C@H](N2CCC3(CC2)CCN(S(=O)(=O)c2cc(Cl)c(Cl)cc2Cl)CC3)C[C@H]1Cc1ccccc1 [Compound 115],> 10000 nM,> 10000 nM,490 nM
Cc1cn(CC(=O)N2CCC3(CC2)CCN([C@H]2CCN(C(=O)c4cc(C(F)(F)F)cc(C(F)(F)F)c4)[C@H](Cc4ccccc4)C2)CC3)c(=O)[nH]c1=O [Compound 80],> 10000 nM,> 10000 nM,29.5 nM
O=C(Cc1ccsc1)N1CCC2(CC1)CCN([C@H]1CCN(C(=O)c3cc(C(F)(F)F)cc(C(F)(F)F)c3)[C@H](Cc3ccccc3)C1)CC2 [Compound 76],3980 nM,1150 nM,25.7 nM
O=C(c1cccnc1)N1CCC2(CC1)CCN([C@H]1CCN(C(=O)c3cc(C(F)(F)F)cc(C(F)(F)F)c3)[C@H](Cc3ccccc3)C1)CC2 [Compound 50],> 10000 nM,2630 nM,77.6 nM
Cn1cnc(C(=O)N2CCC3(CC2)CCN([C@H]2CCN(C(=O)c4cc(C(F)(F)F)cc(C(F)(F)F)c4)[C@H](Cc4ccccc4)C2)CC3)c1 [Compound 34],> 10000 nM,6170 nM,191 nM
